# Data reported in patent US20080280920A1, “Plasminogen Activator Inhibitor-1 Inhibitors” (priority 2005, published 2008).
# Columns and labels:
# U251 = test: NCI anticancer screen, U251; assay type: cell-based, human; conditions: U251, CNS, 48 h
# TK-10 = test: NCI anticancer screen, TK-10; assay type: cell-based, human; conditions: TK-10, Renal, 48 h
# wildtype human PAI-1 = biological target: T1, wildtype human PAI-1 (Homo sapiens, UniProt P05121); test: PAI-1/uPA assay (residual uPA activity, fluorescent substrate SpectroFluor); assay type: biochemical; conditions: for Conc. of compound required for PAI-1 inhibition (result in words): within the concentration range tested
# T1 construct: purchased Molecular Innovations Lot# HWT-804
# In short: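 Wildtype human PAI-1 (6 nM) preincubated 15-20 min at RT with compound (10 nM to 100 μM final) in HEPES buffer pH 6.6, then with uPA (8 nM, HMW) 5 min. SpectroFluor (0.1 mM) cleavage followed 30 min at 37 °C (ex 360/em 440 nm); PAI-1 activity expressed as % of untreated PAI-1.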
# CAKI-1 = test: NCI anticancer screen, CAKI-1; assay type: cell-based, human; conditions: CAKI-1, Renal, 48 h
# HL-60(TB) = test: NCI anticancer screen, HL-60(TB); assay type: cell-based, human; conditions: Leukemia, 48 h
# KM12 = test: NCI anticancer screen, KM12; assay type: cell-based, human; conditions: KM12, Colon, 48 h
# NCI-H226 = test: NCI anticancer screen, NCI-H226; assay type: cell-based, human; conditions: NCI-H226, Non-Small Cell Lung, 48 h
# SNB-19 = test: NCI anticancer screen, SNB-19; assay type: cell-based, human; conditions: SNB-19, CNS, 48 h
# MALME-3M = test: NCI anticancer screen, MALME-3M; assay type: cell-based, human; conditions: Melanoma, 48 h
# SK-MEL-5 = test: NCI anticancer screen, SK-MEL-5; assay type: cell-based, human; conditions: SK-MEL-5, Melanoma, 48 h
# SR = test: NCI anticancer screen, SR; assay type: cell-based, human; conditions: Leukemia, 48 h
# HS 578T = test: NCI anticancer screen, HS 578T; assay type: cell-based, human; conditions: Breast, 48 h
# HCC-2998 = test: NCI anticancer screen, HCC-2998; assay type: cell-based, human; conditions: HCC-2998, Colon, 48 h
# SF-268 = test: NCI anticancer screen, SF-268; assay type: cell-based, human; conditions: SF-268, CNS, 48 h
# NCI/ADR-RES = test: NCI anticancer screen, NCI/ADR-RES; assay type: cell-based, human; conditions: Breast, 48 h
# SF-295 = test: NCI anticancer screen, SF-295; assay type: cell-based, human; conditions: SF-295, CNS, 48 h
# MCF7 = test: NCI anticancer screen, MCF7; assay type: cell-based, human; conditions: MCF7, Breast, 48 h
# NCI-H460 = test: NCI anticancer screen, NCI-H460; assay type: cell-based, human; conditions: NCI-H460, Non-Small Cell Lung, 48 h
# HCT-116 = test: NCI anticancer screen, HCT-116; assay type: cell-based, human; conditions: HCT-116, Colon, 48 h
# SNB-75 = test: NCI anticancer screen, SNB-75; assay type: cell-based, human; conditions: SNB-75, CNS, 48 h
# EKVX = test: NCI anticancer screen, EKVX; assay type: cell-based, human; conditions: Non-Small Cell Lung, 48 h
# BT-549 = test: NCI anticancer screen, BT-549; assay type: cell-based, human; conditions: BT-549, Breast, 48 h
# SW-620 = test: NCI anticancer screen, SW-620; assay type: cell-based, human; conditions: SW-620, Colon, 48 h
# [1] = Homo sapiens, read-out: LC50 (the source's name)
# T1 sequence (P05121 24-402): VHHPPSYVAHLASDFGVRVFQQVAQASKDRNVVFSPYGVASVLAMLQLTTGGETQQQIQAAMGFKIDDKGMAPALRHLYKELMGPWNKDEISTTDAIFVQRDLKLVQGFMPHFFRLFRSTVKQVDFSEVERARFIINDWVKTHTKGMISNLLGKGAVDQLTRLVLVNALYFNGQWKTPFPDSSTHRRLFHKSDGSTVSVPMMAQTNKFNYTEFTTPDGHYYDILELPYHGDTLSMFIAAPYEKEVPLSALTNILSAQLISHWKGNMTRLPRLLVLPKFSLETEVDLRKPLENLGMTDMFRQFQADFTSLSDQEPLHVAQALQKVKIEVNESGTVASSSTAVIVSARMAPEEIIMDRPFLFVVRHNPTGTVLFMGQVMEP
compound,measurement,setting,value
CCOC(=O)c1ccc(CNCc2cc(CN3CCN(c4ccccn4)CC3)c(O)c(OC)c2)cc1 [Compound Q012135T],GI50,"U251; Homo sapiens, U-251",15.8 µM
same,CC50,"U251; Homo sapiens, U-251, read-out: LC50 (the source's name)",65.7 µM
same,TGI,U251,32.2 µM
same,GI50,TK-10; Homo sapiens,20.6 µM
same,CC50,TK-10; [1],> 100 µM
same,TGI,TK-10,46.3 µM
same,Percent PAI-1 inhibition,"wildtype human PAI-1; at the concentration given, percent of activity of untreated PAI-1",8
same,Conc. of compound required for PAI-1 inhibition,"wildtype human PAI-1; concentration giving the percent inhibition, 6 nM PAI-1, 8 nM uPA",100 µM
same,TGI,CAKI-1,44.0 µM
same,GI50,CAKI-1; Homo sapiens,17.2 µM
same,CC50,CAKI-1; [1],> 100 µM
same,GI50,HL-60(TB); Homo sapiens,13.1 µM
same,CC50,HL-60(TB); [1],13.1 µM
same,TGI,HL-60(TB),33.7 µM
same,GI50,KM12; Homo sapiens,21 µM
same,CC50,KM12; [1],73.3 µM
same,TGI,KM12,39.2 µM
same,GI50,NCI-H226; Homo sapiens,19.8 µM
same,LC50 (concentration giving 50% net cell kill),NCI-H226; Homo sapiens,91.5 µM
same,TGI,NCI-H226,42.6 µM
same,GI50,SNB-19; Homo sapiens,33.1 µM
same,CC50,SNB-19; [1],> 100 µM
same,TGI,SNB-19,>100 µM
same,GI50,MALME-3M; Homo sapiens,20.1 µM
same,CC50,MALME-3M; [1],74.1 µM
same,TGI,MALME-3M,38.6 µM
same,GI50,SK-MEL-5; Homo sapiens,12.9 µM
same,CC50,SK-MEL-5; [1],51.8 µM
same,TGI,SK-MEL-5,25.8 µM
same,GI50,SR; Homo sapiens,4.18 µM
same,CC50,SR; [1],4.18 µM
same,TGI,SR,20.6 µM
same,TGI,HS 578T,41.7 µM
same,GI50,HS 578T; Homo sapiens,19.1 µM
same,CC50,HS 578T; [1],90.9 µM
same,TGI,HCC-2998,31.6 µM
same,GI50,HCC-2998; Homo sapiens,15.3 µM
same,LC50,HCC-2998; Homo sapiens,65.1 µM
same,GI50,SF-268; Homo sapiens,19.1 µM
same,LC50,SF-268; Homo sapiens,71.1 µM
same,TGI,SF-268,36.9 µM
same,TGI,NCI/ADR-RES,96.9 µM
same,GI50,NCI/ADR-RES; Homo sapiens,27.6 µM
same,CC50,NCI/ADR-RES; [1],> 100 µM
same,GI50,SF-295; Homo sapiens,19.6 µM
same,CC50,SF-295; [1],73.5 µM
same,TGI,SF-295,38.0 µM
same,GI50,MCF7; Homo sapiens,16.3 µM
same,CC50,MCF7; [1],69.9 µM
same,TGI,MCF7,33.7 µM
same,GI50,NCI-H460; Homo sapiens,20.2 µM
same,CC50,NCI-H460; [1],70.4 µM
same,TGI,NCI-H460,37.7 µM
same,TGI,HCT-116,>100 µM
same,GI50,HCT-116; Homo sapiens,18.6 µM
same,LC50 (50% lethal concentration),HCT-116; Homo sapiens,> 100 µM
same,GI50,SNB-75; Homo sapiens,17.6 µM
same,LC50 (concentration killing 50% of cells),SNB-75; Homo sapiens,59.2 µM
same,TGI,SNB-75,32.2 µM
same,GI50,EKVX; Homo sapiens,21.3 µM
same,CC50,EKVX; [1],> 100 µM
same,TGI,EKVX,62.1 µM
same,TGI,BT-549,30.0 µM
same,GI50,BT-549; Homo sapiens,15.5 µM
same,CC50,BT-549; [1],58 µM
same,GI50,SW-620; Homo sapiens,18.5 µM
same,CC50,SW-620; [1],68 µM
same,TGI,SW-620,35.5 µM
COc1cc(CNc2ccc(C(=O)OC(C)(C)C)cc2)cc(CN2CCN(c3ccccn3)CC2)c1O [Compound Q012145T],GI50,"U251; Homo sapiens, U-251",75.9 µM
same,GI50,TK-10; Homo sapiens,70.4 µM
same,Conc. of compound required for PAI-1 inhibition (result in words),wildtype human PAI-1,No inhibition
same,GI50,CAKI-1; Homo sapiens,> 100 µM
same,GI50,HL-60(TB); Homo sapiens,12.4 µM
same,GI50,KM12; Homo sapiens,80.1 µM
same,GI50,NCI-H226; Homo sapiens,> 100 µM
same,GI50,SNB-19; Homo sapiens,> 100 µM
same,GI50,MALME-3M; Homo sapiens,34.6 µM
same,GI50,SK-MEL-5; Homo sapiens,10.7 µM
same,GI50,SR; Homo sapiens,8.3 µM
same,GI50,HS 578T; Homo sapiens,> 100 µM
same,GI50,HCC-2998; Homo sapiens,> 100 µM
same,GI50,SF-268; Homo sapiens,61.5 µM
same,GI50,NCI/ADR-RES; Homo sapiens,41.1 µM
same,GI50,SF-295; Homo sapiens,69.9 µM
same,GI50,MCF7; Homo sapiens,21 µM
same,GI50,NCI-H460; Homo sapiens,21.9 µM
same,GI50,HCT-116; Homo sapiens,15.2 µM
same,GI50,SNB-75; Homo sapiens,> 100 µM
same,GI50,EKVX; Homo sapiens,51.5 µM
same,GI50,BT-549; Homo sapiens,52.9 µM
same,GI50,SW-620; Homo sapiens,63.7 µM
CCOC(=O)[C@H](Cc1ccccc1)NCc1cc(CN2CCN(c3ccccn3)CC2)c(O)c(OC)c1 [Compound Q012147T],GI50,"U251; Homo sapiens, U-251",61.9 µM
same,GI50,TK-10; Homo sapiens,83 µM
same,Conc. of compound required for PAI-1 inhibition (result in words),wildtype human PAI-1,No inhibition
same,GI50,CAKI-1; Homo sapiens,> 100 µM
same,GI50,HL-60(TB); Homo sapiens,37.5 µM
same,GI50,KM12; Homo sapiens,> 100 µM
same,GI50,NCI-H226; Homo sapiens,> 100 µM
same,GI50,SNB-19; Homo sapiens,> 100 µM
same,GI50,MALME-3M; Homo sapiens,99.9 µM
same,GI50,SK-MEL-5; Homo sapiens,18.7 µM
same,GI50,SR; Homo sapiens,0.32 µM
same,GI50,HS 578T; Homo sapiens,48.3 µM
same,GI50,HCC-2998; Homo sapiens,> 100 µM
same,GI50,SF-268; Homo sapiens,> 100 µM
same,GI50,NCI/ADR-RES; Homo sapiens,> 100 µM
same,GI50,SF-295; Homo sapiens,> 100 µM
same,GI50,MCF7; Homo sapiens,88.8 µM
same,GI50,NCI-H460; Homo sapiens,60.6 µM
same,GI50,HCT-116; Homo sapiens,34.4 µM
same,GI50,SNB-75; Homo sapiens,56.6 µM
same,GI50,EKVX; Homo sapiens,> 100 µM
same,GI50,BT-549; Homo sapiens,67.5 µM
same,GI50,SW-620; Homo sapiens,> 100 µM
